What all share (format): cell-based
Assay [1] deals with Staphylococcus aureus 209PJC1. The assay is described as follows: Minimum Growth Inhibitory Concentration (MIC), Staphylococcus aureus 209PJC1. To be noted: read-out: Minimum Growth Inhibitory Concentration (MIC).
From the text: (§1) Minimum Growth Inhibitory Concentration (MIC) mcg/ml
1. Staphylococcus aureus 209PJC1
as §1
2. Staphylococcus aureus 209 PJC1

Another assay concerns Bacillus subtilis. The assay is described as follows: Minimum Growth Inhibitory Concentration (MIC), Bacillus subtilis. To be noted: Table 1, bacterium 2: Bacillus subtilis.
From the text: as §1

The subject of a further assay is Escherichia coli RGN 823. Description: Minimum Growth Inhibitory Concentration (MIC), Escherichia coli RGN 823. As to conditions: RGN823; Table 1, bacterium 3: Escherichia coli RGN 823.
From the text: as §1
3. Escherichia coli RGN 823

Assay [2] relates to Klebsiella pneumoniae GN 69. The assay is described as follows: Minimum Growth Inhibitory Concentration (MIC), Klebsiella pneumoniae GN 69. As to conditions: GN69; Table 1, bacterium 4: Klebsiella pneumoniae GN 69.
From the text: as §1
4. Klebsiella pneumoniae GN 69

Another assay relates to Serratia marcescens N 01. Description: Minimum Growth Inhibitory Concentration (MIC), Serratia marcescens N 01. To be noted: N01; Table 1, bacterium 7: Serratia marcescens N 01.
From the text: as §1
7. Serratia marcescens N 01

Assay [3] concerns Pseudomonas aeruginosa MB 3833. The assay is described as follows: Minimum Growth Inhibitory Concentration (MIC), Pseudomonas aeruginosa MB 3833. As to conditions: MB3833; Table 1, bacterium 8: Pseudomonas aeruginosa MB 3833.
From the text: as §1
8. Pseudomonas aeruginosa MB 3833

The test system of assay [4] is Streptococcus faecalis ATCC 8043. Description: Minimum Growth Inhibitory Concentration (MIC), Streptococcus faecalis ATCC 8043. As to conditions: Enterococcus faecalis, ATCC8043; Table 1, bacterium 9: Streptococcus faecalis ATCC 8043.
From the text: as §1
9. Streptococcus faecalis ATCC 8043

In the next assay the test system is Proteus vulgaris GN 76. The assay is described as follows: Minimum Growth Inhibitory Concentration (MIC), Proteus vulgaris GN 76. To be noted: GN76, read-out: Minimum Growth Inhibitory Concentration (MIC).
From the text: as §1
10. Proteus vulgaris GN 76
as §1
8. Proteus vulgaris GN 76

Assay [5] relates to Enterobacter cloacae G0005. The assay is described as follows: Minimum Growth Inhibitory Concentration (MIC), Enterobacter cloacae G0005. To be noted: Table 1, bacterium 11: Enterobacter cloacae G0005.
From the text: as §1
11. Enterobacter cloacae G0005

For another assay, the system named is Proteus vulgaris OX19. The assay is described as follows: Minimum Growth Inhibitory Concentration (MIC), Proteus vulgaris OX19. To be noted: Table 1, bacterium 5: Proteus vulgaris OX19.
From the text: as §1
5. Proteus vulgaris OX19

Assay [6] deals with Enterobacter cloacae G0006. The assay is described as follows: Minimum Growth Inhibitory Concentration (MIC), Enterobacter cloacae G0006. To be noted: Table 1, bacterium 6: Enterobacter cloacae G0006.
From the text: as §1
6. Enterobacter cloacae G0006

For assay [7], the system named is Staphylococcus aureus Smith. The assay is described as follows: Minimum Growth Inhibitory Concentration (MIC), Staphylococcus aureus Smith. As to conditions: Table 2, bacterium 1: Staphylococcus aureus Smith; read-out: Minimum Growth Inhibitory Concentration (MIC).
From the text: as §1
1. Staphylococcus aureus Smith

Assay [8] has as its system Escherichia coli NIHJ JC2. The assay is described as follows: Minimum Growth Inhibitory Concentration (MIC), Escherichia coli NIHJ JC2. To be noted: NIHJJC2; Table 2, bacterium 3: Escherichia coli NIHJ JC2; read-out: Minimum Growth Inhibitory Concentration (MIC).
From the text: as §1
3. Escherichia coli NIHJ JC2

The next assay has as its system Eshcerichia coli GN 206. Description: Minimum Growth Inhibitory Concentration (MIC), Escherichia coli GN 206. To be noted: GN206, Table 2, bacterium 4: Eshcerichia coli GN 206, read-out: Minimum Growth Inhibitory Concentration (MIC).
From the text: as §1
4. Eshcerichia coli GN 206

Assay [9] has as its system Klebsiella pneumoniae PCI 602. The assay is described as follows: Minimum Growth Inhibitory Concentration (MIC), Klebsiella pneumoniae PCI 602. As to conditions: PCI602; Table 2, bacterium 5: Klebsiella pneumoniae PCI 602; read-out: Minimum Growth Inhibitory Concentration (MIC).
From the text: as §1
5. Klebsiella pneumoniae PCI 602

The subject of a further assay is Proteus mirabilis GN 79. Description: Minimum Growth Inhibitory Concentration (MIC), Proteus mirabilis GN 79. To be noted: GN79; Table 2, bacterium 6: Proteus mirabilis GN 79; read-out: Minimum Growth Inhibitory Concentration (MIC).
From the text: as §1
6. Proteus mirabilis GN 79

Assay [10] relates to Salmonella typhimurium LT2. The assay is described as follows: Minimum Growth Inhibitory Concentration (MIC), Salmonella typhimurium LT2. To be noted: Salmonella enterica; Table 2, bacterium 7: Salmonella typhimurium LT2; read-out: Minimum Growth Inhibitory Concentration (MIC).
From the text: as §1
7. Salmonella typhimurium LT2

A further assay deals with Proteus rettgeri GN624. The assay is described as follows: Minimum Growth Inhibitory Concentration (MIC), Proteus rettgeri GN624. To be noted: Providencia rettgeri; Table 2, bacterium 9: Proteus rettgeri GN624; read-out: Minimum Growth Inhibitory Concentration (MIC).
From the text: as §1
9. Proteus rettgeri GN624

Assay [11] concerns Serratia marcescens No. 1. The assay is described as follows: Minimum Growth Inhibitory Concentration (MIC), Serratia marcescens No. 1. To be noted: Table 2, bacterium 11: Serratia marcescens No. 1.
From the text: as §1
11. Serratia marcescens No. 1

[12] abbreviates: Table 1, bacterium 1: Staphylococcus aureus 209PJC1.
Setting [13] is: Table 1, bacterium 10: Proteus vulgaris GN 76.

In brackets after ≈: the same amount, converted by molar mass. Counter-ions that a name gives are not always drawn. Like-named read-outs stand apart in the source and are kept apart here.

With `CO/N=C(\C(=O)N[C@@H]1C(=O)N2C(C(=O)[O-])=C(CSc3cc[n+](CCS(=O)(=O)O)c4c3CCC4)CS[C@H]12)c1csc(N)n1` [Example 39, (6R,7R)-7-[(Z)-2-(2-Aminothiazol-4-yl)-2-methoxyiminoacetamido]-3-[[2,3-cyclopenteno-1-(2-sulfoethyl)pyridinium-4-yl]thiomethyl]-ceph-3-em-4-carboxylic acid sodium salt], the MIC in [1] (setting [12]) is 0.78 µg/mL; in the assay with Bacillus subtilis it was 1.56 µg/mL; against Escherichia coli RGN 823, ≤ 0.025 µg/mL; in assay [2], ≤ 0.025 µg/mL; against Serratia marcescens N 01 it was ≤ 0.025 µg/mL; in assay [3], 12.5 µg/mL. For the same molecule, the MIC in [4] turned out to be 6.25 µg/mL; in the assay with Proteus vulgaris GN 76 (setting [13]), 0.2 µg/mL; in assay [5], 0.1 µg/mL.
On to `C[n+]1c(SCC2=C(C(=O)[O-])N3C(=O)[C@@H](NC(=O)/C(=N\OC(C)(C)C(=O)O)c4csc(N)n4)[C@H]3SC2)ccc2c1CCCC2` [Example 18, (6R,7R)-7-[(Z)-2-(2-Aminothiazol-4-yl)-2-(1-methyl-1-carboxyethoxyimino)acetamido]-3-[(5,6-cyclohexeno-1-methylpyridinium-2-yl)thiomethyl]-ceph-3-em-4-carboxylate], for which the MIC in assay [1] (setting [12]) is 1.56 µg/mL (≈ 2.41 µM); against Bacillus subtilis, 12.5 µg/mL (≈ 19.3 µM); with Escherichia coli RGN 823, 0.2 µg/mL (≈ 0.309 µM); in assay [2] it was 0.39 µg/mL (≈ 0.603 µM); against Proteus vulgaris OX19 it was 0.1 µg/mL (≈ 0.155 µM); in assay [6], 6.25 µg/mL (≈ 9.66 µM). In addition, the values for the MIC (against Serratia marcescens N 01; in [3]) were 0.05 µg/mL (≈ 0.0773 µM) and 6.25 µg/mL (≈ 9.66 µM), respectively.
For the molecule `CO/N=C(\C(=O)N[C@@H]1C(=O)N2C(C(=O)[O-])=C(CSc3cc[n+](CC(N)=O)c4c3CCC4)CS[C@H]12)c1csc(N)n1` [Example 35, (6R,7R)-7-[(Z)-2-(2-Aminothiazol-4-yl)-2-methoxyiminoacetamido]-3-[(2,3-cyclopenteno-1-carbamoylmethylpyridinium-4-yl)thiomethyl]-ceph-3-em-4-carboxylate], the MIC in assay [1] (setting [12]) was 0.1 µg/mL (≈ 0.166 µM); in the assay on Bacillus subtilis it was 0.2 µg/mL (≈ 0.331 µM); against Escherichia coli RGN 823, 0.1 µg/mL (≈ 0.166 µM); in [2] it was 0.05 µg/mL (≈ 0.0828 µM); in the assay on Serratia marcescens N 01 it was 0.1 µg/mL (≈ 0.166 µM); in assay [3], 12.5 µg/mL (≈ 20.7 µM). Besides, the MIC came out at 0.2 µg/mL (≈ 0.331 µM) in [4], 0.39 µg/mL (≈ 0.646 µM) with Proteus vulgaris GN 76 (setting [13]) and 0.2 µg/mL (≈ 0.331 µM) in [5].
As to `Cc1cc(SCC2=C(C(=O)[O-])N3C(=O)[C@@H](NC(=O)/C(=N\OC[C@@H](N)C(=O)O)c4csc(N)n4)[C@H]3SC2)c2c([n+]1C)CCCC2` [Example 12, (6R,7R)-7-[(Z)-2-(2-Aminothiazol-4-yl)-2-(2D-2-amino-2-carboxyethoxyimino)acetamido]-3-[(6-methyl-2,3-cyclohexeno-1-methylpyridinium-4-yl)thiomethyl]-ceph-3-em-4-carboxylate], the MIC in assay [1] (setting [12]) is 3.13 µg/mL (≈ 4.73 µM); with Bacillus subtilis it was 12.5 µg/mL (≈ 18.9 µM); in the assay with Escherichia coli RGN 823, 1.56 µg/mL (≈ 2.36 µM); in assay [2] it was 0.78 µg/mL (≈ 1.18 µM); against Proteus vulgaris OX19, 1.56 µg/mL (≈ 2.36 µM); in assay [6], 6.25 µg/mL (≈ 9.44 µM). For the same molecule, the MIC is 1.56 µg/mL (≈ 2.36 µM) in the assay on Serratia marcescens N 01 and 50 µg/mL (≈ 75.6 µM) in [3].
Take `CO/N=C(\C(=O)N[C@@H]1C(=O)N2C(C(=O)[O-])=C(CSc3ccc4c([n+]3C)CCC4)CS[C@H]12)c1csc(N)n1` [Example 1, (6R,7R)-7-[(Z)-2-(2-Aminothiazol-4-yl)-2-methoxyiminoacetamido]-3-[(5,6-cyclopenteno-1-methylpyridinium-2-yl)thiomethyl]-ceph-3-em-4-carboxylate]: the MIC in assay [1] (setting [12]) is 0.2 µg/mL (≈ 0.357 µM); with Bacillus subtilis, 1.56 µg/mL (≈ 2.78 µM); in the assay with Escherichia coli RGN 823, ≤ 0.025 µg/mL; in assay [2], ≤ 0.025 µg/mL; in the assay with Proteus vulgaris OX19 it was 0.39 µg/mL (≈ 0.696 µM); in assay [6], 1.56 µg/mL (≈ 2.78 µM). For the same molecule, the MIC in the assay on Serratia marcescens N 01 worked out at 0.05 µg/mL (≈ 0.0892 µM); in assay [3] it was 12.5 µg/mL (≈ 22.3 µM).
Turning to `CO/N=C(\C(=O)N[C@@H]1C(=O)N2C(C(=O)[O-])=C(CSc3cc[n+](C)c4c3CCC4)CS[C@H]12)c1csc(N)n1` [Example 2, (6R,7R)-7-[(Z)-2-(2-Aminothiazol-4-yl)-2-methoxyiminoacetamido]-3-[(2,3-cyclopenteno-1-methylpyridinium-4-yl)thiomethyl]-ceph-3-em-4-carboxylate], the MIC in [1] (setting [12]) is 0.05 µg/mL (≈ 0.0892 µM); against Bacillus subtilis, 1.56 µg/mL (≈ 2.78 µM); against Escherichia coli RGN 823 it was ≤ 0.025 µg/mL; in assay [2], ≤ 0.025 µg/mL; in the assay on Proteus vulgaris OX19 it was 0.1 µg/mL (≈ 0.178 µM); in [6], 0.78 µg/mL (≈ 1.39 µM). Also, the results for the MIC (with Serratia marcescens N 01; in assay [3]) were 0.05 µg/mL (≈ 0.0892 µM) and 6.25 µg/mL (≈ 11.1 µM), respectively.
With `CCO/N=C(\C(=O)N[C@@H]1C(=O)N2C(C(=O)[O-])=C(CSc3cc[n+](CC(F)(F)F)cc3)CS[C@H]12)c1csc(N)n1` [Example 81, (6R,7R)-7-[(Z)-2-(2-Aminothiazol-4-yl)-2-ethoxyiminoacetamido]-3-[1-(2,2,2-trifluoroethylpyridinium-4-yl)thiomethyl]-ceph-3-em-4-carboxylate], the MIC in [1] (Table 2, bacterium 2: Staphylococcus aureus 209 PJC1) was 0.39 µg/mL (≈ 0.647 µM); in the assay with Proteus vulgaris GN 76 (Table 2, bacterium 8: Proteus vulgaris GN 76) it was 0.39 µg/mL (≈ 0.647 µM); in [7], 0.39 µg/mL (≈ 0.647 µM); in assay [8], 0.05 µg/mL (≈ 0.083 µM); with Eshcerichia coli GN 206, ≤ 0.025 µg/mL; in [9], 0.1 µg/mL (≈ 0.166 µM). In addition, the MIC in the assay with Proteus mirabilis GN 79 stood at 0.78 µg/mL (≈ 1.29 µM); in assay [10], 0.05 µg/mL (≈ 0.083 µM); in the assay on Proteus rettgeri GN624 it was 0.1 µg/mL (≈ 0.166 µM); in assay [11], 0.05 µg/mL (≈ 0.083 µM).
Turning to `CO/N=C(\C(=O)N[C@@H]1C(=O)N2C(C(=O)[O-])=C(CSc3cc(C)[n+](C)c4c3CCC4)CS[C@H]12)c1csc(N)n1` [Example 4, (6R,7R)-7-[(Z)-2-(2-Aminothiazol-4-yl)-2-methoxyiminoacetamido]-3-[(6-methyl-2,3-cyclopenteno-1-methylpyridinium-4-yl)thiomethyl]-ceph-3-em-4-carboxylate], the MIC in [1] (setting [12]) is 0.1 µg/mL (≈ 0.174 µM); in the assay on Bacillus subtilis it was 0.2 µg/mL (≈ 0.348 µM); against Escherichia coli RGN 823, 0.1 µg/mL (≈ 0.174 µM); in [2], 0.1 µg/mL (≈ 0.174 µM); against Proteus vulgaris OX19 it was 0.2 µg/mL (≈ 0.348 µM); in assay [6] it was 0.78 µg/mL (≈ 1.36 µM). In addition, the MIC with Serratia marcescens N 01 stood at 0.1 µg/mL (≈ 0.174 µM); in assay [3], 6.25 µg/mL (≈ 10.9 µM).

The record behind these values is patent US4785090A, “Cephalosporin derivatives” (Meiji Seika Kaisha, Ltd., priority 1984, dated 1988).
